Test results reported in the METLIN SMRT retention time set (Domingo-Almenara et al. 2019).

Experiment: gradient 5% acetonitrile 3 min, to 50% in 2 min, to 85% in 15 min, held 3 min, 100 µL/min
Conditions: column: Zorbax Extend-C18 2.1 x 50 mm; eluents: water / acetonitrile, 0.1% formic acid
Procedure, shortened: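 Each retention time is based on an adduct peak selected computationally and verified by manual inspection. Measurements used HPLC–quadrupole time-of-flight mass spectrometry in positive and negative ionization mode on mixtures of ~100 pure standards. Chromatography ran on a Zorbax Extend-C18 column (2.1 × 50 mm, 1.8 μm) at 100 μL/min with water and acetonitrile, each containing 0.1% formic acid, and dead and dwell volumes of 40 μL and 900 μL.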

RP-LC retention time [s]	SMILES
759	O=C([C@@H]1C[C@H](Oc2ccccc2)CN1C(=O)C1CC=CC1)N1CCCC1
883	CCCc1nc(-c2c(C)cc(C)nc2NC(=O)c2ccccc2F)no1
1160	O=C(Nc1ccsc1-c1nnc(C2CC2)o1)c1cccs1
646	COCCCNC(=O)C1Cn2cccc2C(=O)N1CC(C)C (stereo unspecified)
771	O=S(=O)(c1ccc(-c2nnc(C3CC3)o2)o1)N1CCCC1
621	CCOC(=O)N1CCC(NC(=O)C2CCCN(c3cc(=O)n(C)c(=O)n3C)C2)CC1 (stereo unspecified)
1040	Cc1ccccc1-c1nnc(CSc2nnc(NC(=O)c3cccc(Cl)c3)s2)o1
852	O=C(c1cccc(Br)c1)N1CCN(c2cc(-c3ccccc3)[nH]n2)CC1
947	COc1cc(N2CCN(S(=O)(=O)c3cccc(C(F)(F)F)c3)CC2)nc(OC)n1
710	COc1ccc(-c2nc3cnccn3c2Nc2ccc(C(=O)NCc3ccco3)cc2)cc1
953	CCOc1ccccc1C(=O)Nc1cccn2c(C3CCC3)nnc12
945	Cc1ccc(N2CCC(NC(=O)Nc3cccc(C)c3C)C2=O)cc1 (stereo unspecified)
661	COc1cc(C(C)=O)ccc1OCC(=O)NCCn1cnc(-c2ccc(F)cc2)cc1=O
1010	Cn1nc(-c2nnc(-c3ccccc3)o2)c2c1CCN(S(=O)(=O)c1ccc(Cl)s1)C2
891	COc1ccc2nc(C(=O)NCc3ccccc3Br)cn2n1
550	O=C(C1CC1)N1CCC(N(Cc2cccnc2)C2CCOCC2)CC1
821	CCc1ccc(CNC(=O)Cn2c(C)nc3onc(C)c3c2=O)cc1
920	CCN(C(=O)Cn1nc(S(=O)(=O)c2ccc(Cl)cc2)ccc1=O)c1ccccc1
983	CC(C)Cc1ccc(S(=O)(=O)N2C[C@@H](F)C[C@H]2C(=O)N2CCCCC2)cc1
812	COc1ncc(C(=O)Nc2cccc(Cl)c2)c(C)n1
702	O=C1COc2ccc(S(=O)(=O)N3CCC(C(=O)NCc4cccs4)CC3)cc2N1
616	CCn1cc(-c2nc(C)c(C(=O)NCc3ccncc3)s2)c2cccnc21

RP-LC retention time [s]	SMILES
758	COCCC1CCN(C(=O)c2cc(-c3ccccc3)n[nH]2)CC1
732	O=C(Cn1cnc2nc3c(cc2c1=O)CCCC3)Nc1ccccc1Br
666	O=C(Cc1cccs1)N1CCN(S(=O)(=O)C2CC2)CC1
826	COc1ccc(CN(C(=O)c2oc3ccccc3c2C)C2CCS(=O)(=O)C2)cc1OC (stereo unspecified)
552	c1ccc(O[C@H]2CN(C3CCNCC3)[C@H]2c2ccncc2)cc1
830	COc1cccc2cc(-c3nnc(NC(=O)NC4CCCC4)o3)oc12
561	O=C(NCCN1CCOCC1)C1CCc2sc(C(=O)N3CCOCC3)cc2C1 (stereo unspecified)
972	Cc1ccc(NC(=O)N2CCCC2c2nc(-c3ccc(F)cc3F)no2)cc1 (stereo unspecified)
1140	CCN(CC)S(=O)(=O)c1cccc(-c2nnc(-c3ccc(Cl)cc3)o2)c1
732	O=C([C@@H]1C[C@H](F)CN1C(=O)Nc1ccccc1Cl)N1CCCCC1
1060	Cc1cccc(N2CCN(C(=O)c3sc4ncccc4c3-n3cccc3)CC2)c1
723	Cc1nc2cc(N3CCCC(C(=O)NC4CCCCC4)C3)cnc2nc1C (stereo unspecified)
826	Cc1ccc(N2CC(C(=O)N3CCC(NS(=O)(=O)c4ccc(C)cc4)CC3)CC2=O)cc1 (stereo unspecified)
1110	C=CCN1C(=O)COc2ccc(-c3nc(NC(=O)c4cccc(C)c4)sc3C)cc21
1080	O=c1c2ccccc2c(-c2nc(-c3ccncc3)no2)cn1-c1ccc(F)cc1
947	CCc1nc(OCC(=O)NCc2cccc(C)c2)c2c(C)c(C)oc2n1
994	CCc1ccc(S(=O)(=O)NCCc2csc3nc(-c4cccc(F)c4)nn23)s1
964	CC(C)(C)C(=O)N1CC(c2nc(-c3ccc(F)cc3)no2)C2(CCOCC2)C1 (stereo unspecified)
824	O=C(Cn1nc(C(=O)N2CCCC2)c2ccccc21)NCc1ccccc1Cl
677	COc1ccc(OC)c(C(O)CN2CCN(c3ccccc3F)CC2)c1 (stereo unspecified)
652	c1coc(-c2nc(-c3ccc4c(c3)nnn4CCN3CCCCC3)no2)c1
895	CN(C)S(=O)(=O)c1ccc2c(c1)cc(C(=O)NCCc1c[nH]c3ccccc13)n2C

RP-LC retention time [s]	SMILES
766	O=C1Nc2ccccc2SC1C(=O)N1CCC(C(=O)N2CCN(c3ccccc3)CC2)CC1 (stereo unspecified)
884	CCn1ccc2sc(C)c(C(=O)NCC3CCCCC3)c2c1=O
751	CCS(=O)(=O)N1CCCN(C2=NS(=O)(=O)C(c3ccccc3)=C2C)CC1
994	Cc1ccc(-c2ncc(C(=O)Nc3ccccc3Br)c(-c3ccncc3)n2)cc1
846	Cc1cc(-c2nnc(C3CCC3)o2)c(C)n1CC(=O)Nc1ccccc1
773	CCOC(=O)c1[nH]c(C)c(CCC(=O)N2CCC(C(=O)NCc3cccc(OC)c3)CC2)c1C
659	O=C(CC(c1cccs1)n1cccc1)N1CCN(c2ccccn2)CC1 (stereo unspecified)
646	CC(C)Cn1c(=O)c(N2CCN(C(=O)c3nccc4ccccc34)CC2)nc2ccncc21
601	COc1cccc(S(=O)(=O)N2CC(n3ccnc3)C2)c1
648	Cn1ccc2cc(S(=O)(=O)N3CCC(C(=O)N4CCN(c5ccccn5)CC4)CC3)ccc21
1050	Cn1c(C(=O)NCCC2=CCCCC2)cc2c(=O)oc3ccccc3c21
1020	COc1ccc(-n2c(=O)c3sccc3n(Cc3nc(-c4cccc(C)c4)no3)c2=O)cc1
632	CC1=C(c2ccccc2)S(=O)(=O)N=C1N1CCN(c2ccccn2)CC1
1040	O=C(Nc1ccc(Br)cc1F)C1CCCN(S(=O)(=O)Cc2ccc(F)cc2)C1 (stereo unspecified)
957	Cc1cc(-c2nc(-c3ccc(OC(F)(F)F)cc3)no2)nn1Cc1ccnc(N2CCN(C3CC3)CC2)c1
659	Cc1ccc(C(=O)N2CCN(c3nnc4cccc(C)n34)CC2)s1
862	COc1cc(-c2noc(Cn3nc4ccc(-c5ccccc5)nn4c3=O)n2)cc(OC)c1OC
434	CN(C)[C@@H]1CN(Cc2ccc(F)c(F)c2)CC[C@@H]1CO
762	COc1cccc(CN2CCc3nc(N4CCN(c5ccccc5)CC4)ncc3C2)c1OC
859	COC(=O)c1[nH]c(C)c(C(=O)C(C)N(CC(C)C)C(=O)c2ccc(OC)cc2)c1C (stereo unspecified)
592	O=C(NCc1cccs1)NCC1(CO)CC1
680	O=C(Nc1nccs1)C1CCN(S(=O)(=O)c2cc(C(=O)N3CCOCC3)cs2)CC1
